Measurements published in the kinase profiling compilation of Christmann-Franck et al. (2016).

Legend:
Assay in all cases: radiometric filter-binding kinase assay
MARK4 (human) = MARK4 (human) (UniProt Q96L34)
CHEK2 (human) = CHEK2 (human) (UniProt O96017)
PRKCZ (human) = PRKCZ (human) (UniProt Q05513)
IKBKB (human) = IKBKB (human) (UniProt O14920)
MAPKAPK3 (human) = MAPKAPK3 (human) (UniProt Q16644); settings: compound 1.0 µM
MKNK1 (human) = MKNK1 (human) (UniProt Q9BUB5); settings: compound 1.0 µM
PRKAA1 or PRKAA2 (rat) = settings: accession and sequence are those of the human protein
CDK2 CCNA2 (human) = CDK2 CCNA2 (human) (UniProt P20248+P24941)
LCK (mouse) = settings: accession and sequence are those of the human protein
MAPK13 (human) = MAPK13 (human) (UniProt O15264)
EEF2K (human) = EEF2K (human) (UniProt O00418)
Chain of EEF2K (human) (O00418 whole entry, looked up): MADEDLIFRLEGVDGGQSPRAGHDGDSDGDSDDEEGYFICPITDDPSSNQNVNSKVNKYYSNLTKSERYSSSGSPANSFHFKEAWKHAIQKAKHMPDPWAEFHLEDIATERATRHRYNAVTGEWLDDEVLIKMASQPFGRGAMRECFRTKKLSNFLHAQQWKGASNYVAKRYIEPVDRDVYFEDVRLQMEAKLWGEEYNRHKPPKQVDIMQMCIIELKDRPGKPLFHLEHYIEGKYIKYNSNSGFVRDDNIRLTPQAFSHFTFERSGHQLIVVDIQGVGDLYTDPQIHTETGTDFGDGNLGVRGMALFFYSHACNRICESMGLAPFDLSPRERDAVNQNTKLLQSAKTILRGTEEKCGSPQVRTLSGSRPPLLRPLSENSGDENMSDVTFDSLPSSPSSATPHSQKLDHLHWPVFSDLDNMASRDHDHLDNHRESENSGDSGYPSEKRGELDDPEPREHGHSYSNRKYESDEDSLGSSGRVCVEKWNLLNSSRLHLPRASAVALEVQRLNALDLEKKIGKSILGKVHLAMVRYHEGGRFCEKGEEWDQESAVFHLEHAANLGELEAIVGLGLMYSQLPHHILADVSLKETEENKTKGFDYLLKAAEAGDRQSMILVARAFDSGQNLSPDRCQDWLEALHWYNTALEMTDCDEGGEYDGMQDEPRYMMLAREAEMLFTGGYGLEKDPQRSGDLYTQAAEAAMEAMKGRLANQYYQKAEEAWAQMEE

ROCK2 (rat) = settings: accession and sequence are those of the human protein
MELK (human) = MELK (human) (UniProt Q14680)
Chain of MELK (human) (Q14680 whole entry, looked up): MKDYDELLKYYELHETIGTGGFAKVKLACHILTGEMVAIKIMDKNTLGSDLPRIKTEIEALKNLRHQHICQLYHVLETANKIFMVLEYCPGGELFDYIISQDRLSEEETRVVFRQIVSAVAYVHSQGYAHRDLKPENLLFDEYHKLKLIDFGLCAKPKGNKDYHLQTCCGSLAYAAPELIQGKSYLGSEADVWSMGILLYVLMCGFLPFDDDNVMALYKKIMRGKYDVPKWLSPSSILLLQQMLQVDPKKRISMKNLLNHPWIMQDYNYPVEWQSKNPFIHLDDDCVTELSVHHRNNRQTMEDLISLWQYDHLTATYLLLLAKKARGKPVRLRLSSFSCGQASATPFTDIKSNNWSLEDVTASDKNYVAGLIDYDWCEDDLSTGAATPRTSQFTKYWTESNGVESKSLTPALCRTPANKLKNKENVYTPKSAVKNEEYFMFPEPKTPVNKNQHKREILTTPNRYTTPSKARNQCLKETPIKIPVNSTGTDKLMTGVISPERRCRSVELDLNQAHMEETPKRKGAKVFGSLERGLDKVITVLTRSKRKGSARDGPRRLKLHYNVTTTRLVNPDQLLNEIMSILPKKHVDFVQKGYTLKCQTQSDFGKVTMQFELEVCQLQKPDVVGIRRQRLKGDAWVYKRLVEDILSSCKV

PHKG1 (human) = PHKG1 (human) (UniProt Q16816)
MAPK1 (human) = MAPK1 (human) (UniProt P28482)
Chain of MAPK1 (human) (P28482 whole entry, looked up): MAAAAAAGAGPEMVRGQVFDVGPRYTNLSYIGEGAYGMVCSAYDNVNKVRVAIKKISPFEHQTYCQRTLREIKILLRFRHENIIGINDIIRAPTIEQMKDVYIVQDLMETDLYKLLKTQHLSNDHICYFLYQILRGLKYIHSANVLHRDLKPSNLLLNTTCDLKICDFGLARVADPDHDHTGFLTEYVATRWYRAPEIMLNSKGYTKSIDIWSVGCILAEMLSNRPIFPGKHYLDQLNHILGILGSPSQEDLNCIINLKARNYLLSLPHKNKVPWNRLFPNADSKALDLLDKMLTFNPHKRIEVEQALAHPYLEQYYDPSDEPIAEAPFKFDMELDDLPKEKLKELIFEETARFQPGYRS

MYLK (human) = MYLK (human) (UniProt Q15746)
Chain of MYLK (human) (Q15746 whole entry, looked up): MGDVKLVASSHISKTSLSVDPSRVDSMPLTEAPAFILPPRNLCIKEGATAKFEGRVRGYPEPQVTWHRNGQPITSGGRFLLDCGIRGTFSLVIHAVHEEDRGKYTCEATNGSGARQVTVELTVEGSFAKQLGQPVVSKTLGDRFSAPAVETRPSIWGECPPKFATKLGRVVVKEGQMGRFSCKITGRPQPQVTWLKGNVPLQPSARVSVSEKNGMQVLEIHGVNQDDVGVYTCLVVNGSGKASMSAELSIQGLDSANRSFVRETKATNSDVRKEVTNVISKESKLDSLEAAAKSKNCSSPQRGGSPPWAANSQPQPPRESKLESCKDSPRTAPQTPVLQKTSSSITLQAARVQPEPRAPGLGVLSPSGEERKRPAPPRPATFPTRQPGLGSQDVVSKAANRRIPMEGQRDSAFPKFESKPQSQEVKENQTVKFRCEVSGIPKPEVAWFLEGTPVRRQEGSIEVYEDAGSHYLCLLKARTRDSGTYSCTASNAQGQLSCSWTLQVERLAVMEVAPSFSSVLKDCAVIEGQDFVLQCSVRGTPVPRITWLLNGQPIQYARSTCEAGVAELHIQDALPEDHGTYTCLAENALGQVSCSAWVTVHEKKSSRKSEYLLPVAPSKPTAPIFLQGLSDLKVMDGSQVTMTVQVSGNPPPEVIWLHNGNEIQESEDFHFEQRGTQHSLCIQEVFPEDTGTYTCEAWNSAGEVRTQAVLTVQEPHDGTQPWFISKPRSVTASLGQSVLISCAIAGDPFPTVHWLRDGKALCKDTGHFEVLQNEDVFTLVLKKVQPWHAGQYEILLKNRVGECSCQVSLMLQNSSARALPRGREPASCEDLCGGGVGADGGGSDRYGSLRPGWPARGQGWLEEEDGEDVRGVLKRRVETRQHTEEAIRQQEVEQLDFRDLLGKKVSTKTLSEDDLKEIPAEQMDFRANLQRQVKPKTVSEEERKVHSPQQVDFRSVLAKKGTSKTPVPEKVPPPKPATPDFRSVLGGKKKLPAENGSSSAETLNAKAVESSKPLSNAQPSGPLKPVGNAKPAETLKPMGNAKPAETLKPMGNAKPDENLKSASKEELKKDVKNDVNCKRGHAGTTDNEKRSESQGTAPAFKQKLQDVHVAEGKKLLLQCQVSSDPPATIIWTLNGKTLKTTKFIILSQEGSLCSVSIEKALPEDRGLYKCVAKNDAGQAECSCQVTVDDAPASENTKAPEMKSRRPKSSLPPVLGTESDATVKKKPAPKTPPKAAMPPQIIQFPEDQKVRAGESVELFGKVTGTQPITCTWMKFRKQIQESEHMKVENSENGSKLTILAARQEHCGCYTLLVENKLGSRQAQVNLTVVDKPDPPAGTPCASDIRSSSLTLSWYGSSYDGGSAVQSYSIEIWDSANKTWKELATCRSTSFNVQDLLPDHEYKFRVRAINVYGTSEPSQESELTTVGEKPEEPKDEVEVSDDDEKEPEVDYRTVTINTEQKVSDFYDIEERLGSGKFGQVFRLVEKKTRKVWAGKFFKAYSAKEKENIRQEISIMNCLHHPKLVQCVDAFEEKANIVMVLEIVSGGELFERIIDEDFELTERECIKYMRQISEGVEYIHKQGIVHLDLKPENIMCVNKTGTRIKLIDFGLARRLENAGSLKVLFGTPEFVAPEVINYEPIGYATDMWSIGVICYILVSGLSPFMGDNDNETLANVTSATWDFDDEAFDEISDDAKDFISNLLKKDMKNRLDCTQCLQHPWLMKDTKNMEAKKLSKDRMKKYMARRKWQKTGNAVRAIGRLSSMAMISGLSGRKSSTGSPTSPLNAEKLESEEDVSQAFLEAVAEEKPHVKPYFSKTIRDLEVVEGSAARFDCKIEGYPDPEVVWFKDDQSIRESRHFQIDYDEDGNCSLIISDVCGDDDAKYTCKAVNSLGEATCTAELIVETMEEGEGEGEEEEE

AURKB (human) = AURKB (human) (UniProt Q96GD4)
MKNK2 (human) = MKNK2 (human) (UniProt Q9HBH9)
Chain of MKNK2 (human) (Q9HBH9 whole entry, looked up): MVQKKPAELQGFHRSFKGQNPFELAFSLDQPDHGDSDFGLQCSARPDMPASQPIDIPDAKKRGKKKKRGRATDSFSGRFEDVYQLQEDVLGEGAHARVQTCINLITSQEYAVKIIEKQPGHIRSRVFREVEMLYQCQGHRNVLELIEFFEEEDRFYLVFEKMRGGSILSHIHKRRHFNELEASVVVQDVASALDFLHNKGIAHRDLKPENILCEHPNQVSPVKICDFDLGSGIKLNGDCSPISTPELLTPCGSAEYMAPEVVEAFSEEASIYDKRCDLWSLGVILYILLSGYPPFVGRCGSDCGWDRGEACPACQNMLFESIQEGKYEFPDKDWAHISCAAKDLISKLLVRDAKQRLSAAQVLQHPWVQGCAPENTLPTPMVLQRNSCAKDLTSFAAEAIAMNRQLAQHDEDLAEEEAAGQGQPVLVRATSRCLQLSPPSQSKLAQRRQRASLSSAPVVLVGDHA

PRKACA (human) = PRKACA (human) (UniProt P17612)
[1] = biological target: STK11 CAB39 STRADA (human) (UniProt Q9Y376+Q7RTN6+Q15831)
DAPK1 (human) = DAPK1 (human) (UniProt P53355)
MAP2K2 (human) = MAP2K2 (human) (UniProt P36507)
SRC (human) = SRC (human) (UniProt P12931)
EPHB3 (human) = EPHB3 (human) (UniProt P54753); settings: compound 1.0 µM
MAP3K9 (human) = MAP3K9 (human) (UniProt P80192)
INSRR (human) = INSRR (human) (UniProt P14616); settings: compound 0.1 µM
ERBB4 (human) = ERBB4 (human) (UniProt Q15303)
CSK (human) = CSK (human) (UniProt P41240)
RPS6KA1 KD1 KD2 (human) = RPS6KA1 KD1 KD2 (human) (UniProt Q15418)
FGFR1 (human) = FGFR1 (human) (UniProt P11362)
GSK3B (human) = GSK3B (human) (UniProt P49841)
MINK1 (human) = MINK1 (human) (UniProt Q8N4C8)
NTRK1 (human) = NTRK1 (human) (UniProt P04629); settings: compound 1.0 µM
CSNK2A1 (human) = CSNK2A1 (human) (UniProt P68400)
TTK (human) = TTK (human) (UniProt P33981)

Chain of MARK4 (human) (Q96L34 whole entry, looked up): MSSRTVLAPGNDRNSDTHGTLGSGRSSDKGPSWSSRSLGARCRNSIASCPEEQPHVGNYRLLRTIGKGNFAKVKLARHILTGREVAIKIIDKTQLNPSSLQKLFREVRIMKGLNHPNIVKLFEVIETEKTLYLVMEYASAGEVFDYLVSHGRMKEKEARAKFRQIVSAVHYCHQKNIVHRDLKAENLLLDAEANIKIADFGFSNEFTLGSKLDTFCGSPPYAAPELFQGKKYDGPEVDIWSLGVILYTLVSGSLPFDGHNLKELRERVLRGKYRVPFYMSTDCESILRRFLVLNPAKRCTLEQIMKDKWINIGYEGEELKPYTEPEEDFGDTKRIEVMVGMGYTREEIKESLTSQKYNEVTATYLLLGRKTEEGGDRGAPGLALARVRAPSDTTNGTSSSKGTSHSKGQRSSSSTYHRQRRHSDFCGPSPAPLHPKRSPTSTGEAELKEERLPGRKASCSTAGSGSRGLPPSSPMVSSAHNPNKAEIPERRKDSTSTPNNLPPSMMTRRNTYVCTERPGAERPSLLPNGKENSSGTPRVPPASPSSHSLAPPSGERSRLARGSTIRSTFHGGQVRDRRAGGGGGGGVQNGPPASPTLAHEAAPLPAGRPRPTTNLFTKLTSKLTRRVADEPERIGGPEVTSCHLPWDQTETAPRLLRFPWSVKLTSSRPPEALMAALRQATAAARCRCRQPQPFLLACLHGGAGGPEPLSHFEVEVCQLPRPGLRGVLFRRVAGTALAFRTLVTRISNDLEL

## Cc1cc(NC(=O)c2cccc(NC(=O)/C=C/CN(C)C)c2)ccc1Nc1nccc(-c2cccnc2)n1
MARK4 (human); compound 0.1 µM
  residual activity: 101%
MARK4 (human); compound 1.0 µM
  residual activity: 84%
CHEK2 (human); compound 0.1 µM
  residual activity: 102%
CHEK2 (human); compound 1.0 µM
  residual activity: 72%
PRKCZ (human); compound 0.1 µM
  residual activity: 116%
PRKCZ (human); compound 1.0 µM
  residual activity: 89%
IKBKB (human); compound 0.1 µM
  residual activity: 62%
IKBKB (human); compound 1.0 µM
  residual activity: 74%
MAPKAPK3 (human)
  residual activity: 90%
MKNK1 (human)
  residual activity: 88%
PRKAA1 or PRKAA2 (rat); compound 0.1 µM
  residual activity: 101%
PRKAA1 or PRKAA2 (rat); compound 1.0 µM
  residual activity: 77%
CDK2 CCNA2 (human); compound 0.1 µM
  residual activity: 107%
CDK2 CCNA2 (human); compound 1.0 µM
  residual activity: 92%
LCK (mouse); compound 0.1 µM
  residual activity: 96%
LCK (mouse); compound 1.0 µM
  residual activity: 92%
MAPK13 (human); compound 0.1 µM
  residual activity: 96%
MAPK13 (human); compound 1.0 µM
  residual activity: 80%
EEF2K (human); compound 0.1 µM
  residual activity: 98%
EEF2K (human); compound 1.0 µM
  residual activity: 95%
ROCK2 (rat); compound 0.1 µM
  residual activity: 86%
ROCK2 (rat); compound 1.0 µM
  residual activity: 80%
MELK (human); compound 0.1 µM
  residual activity: 91%
MELK (human); compound 1.0 µM
  residual activity: 63%
PHKG1 (human); compound 0.1 µM
  residual activity: 85%
PHKG1 (human); compound 1.0 µM
  residual activity: 86%
MAPK1 (human); compound 0.1 µM
  residual activity: 110%
MAPK1 (human); compound 1.0 µM
  residual activity: 100%
MYLK (human); compound 0.1 µM
  residual activity: 97%
MYLK (human); compound 1.0 µM
  residual activity: 96%
AURKB (human); compound 0.1 µM
  residual activity: 87%
AURKB (human); compound 1.0 µM
  residual activity: 86%
MKNK2 (human); compound 0.1 µM
  residual activity: 84%
MKNK2 (human); compound 1.0 µM
  residual activity: 67%
PRKACA (human); compound 0.1 µM
  residual activity: 105%
PRKACA (human); compound 1.0 µM
  residual activity: 93%
[1]; compound 0.1 µM
  residual activity: 106%
[1]; compound 1.0 µM
  residual activity: 95%
DAPK1 (human); compound 0.1 µM
  residual activity: 102%
DAPK1 (human); compound 1.0 µM
  residual activity: 90%
MAP2K2 (human); compound 0.1 µM
  residual activity: 98%
MAP2K2 (human); compound 1.0 µM
  residual activity: 92%
SRC (human); compound 0.1 µM
  residual activity: 85%
SRC (human); compound 1.0 µM
  residual activity: 50%
EPHB3 (human)
  residual activity: 105%
MAP3K9 (human); compound 0.1 µM
  residual activity: 98%
MAP3K9 (human); compound 1.0 µM
  residual activity: 88%
INSRR (human)
  residual activity: 93%
ERBB4 (human); compound 0.1 µM
  residual activity: 102%
ERBB4 (human); compound 1.0 µM
  residual activity: 98%
CSK (human); compound 0.1 µM
  residual activity: 110%
CSK (human); compound 1.0 µM
  residual activity: 93%
RPS6KA1 KD1 KD2 (human); compound 0.1 µM
  residual activity: 89%
RPS6KA1 KD1 KD2 (human); compound 1.0 µM
  residual activity: 81%
FGFR1 (human); compound 0.1 µM
  residual activity: 103%
FGFR1 (human); compound 1.0 µM
  residual activity: 82%
GSK3B (human); compound 0.1 µM
  residual activity: 114%
GSK3B (human); compound 1.0 µM
  residual activity: 90%
MINK1 (human); compound 0.1 µM
  residual activity: 94%
MINK1 (human); compound 1.0 µM
  residual activity: 78%
NTRK1 (human)
  residual activity: 92%
CSNK2A1 (human); compound 0.1 µM
  residual activity: 93%
CSNK2A1 (human); compound 1.0 µM
  residual activity: 77%
TTK (human); compound 0.1 µM
  residual activity: 85%
TTK (human); compound 1.0 µM
  residual activity: 65%
